Patent publication US20210196681A1, “SELECTIVE PRESENILIN-2 GAMMA-SECRETASE INHIBITORS” (UNIVERSITEIT MAASTRICHT, priority 2018, published 2021)

Columns and labels:
[1] = test system: oncogenic mutant Notch1 (ΔEGF-Notch1-L1594P-MYC) activity
Method: Cells transduced with ΔEGF-Notch1-L1594P construct were maintained with 1 μg/ml of puromycin. pcDNA3 hNotch1 full-length construct, encoding an N terminal FLAG-tag, followed by the ectodomains and the transmembrane domains of Notch1 fused to the Gal4 DNA binding domain and the transcriptional activation domain of Notch1 was used.
Firefly luciferase encoding reporter plasmids containing synthetic CSL binding sites (pGL4.24-12xCSL) was used to monitor Notch activity, using pGL4.74 TK-hRL (Promega) as transfection control. […] A CMV driven Firefly luciferase-GFP construct was used as transfection control. Transfections were performed using Fugene HD transfection reagent (Promega). […]
1 μg of the primary reporter was used to record the effect of specific stimuli and 0.1 μg of the control reporter for normalization. […] Cells were washed, lysed and luciferase was measured, as described by manufacturer (dual-glo luciferase reporter assay system Promega) on a Fluostar Omega plate reader (BMG Labtech) For Gal4-luciferase assay, various concentrations of the Notch receptor plasmids were transfected and complemented with empty vector. […] For Gaussia-Luc assay, medium was collected at different time points to monitor overtime 12xCSL activation and measured with the BioLux® Gaussia Luciferase Assay Kit according to manufacturer's instructions (NEB). All values are expressed as relative light units (RLU).

Presenilin 2 (Psen2) = target: T1, Presenilin 2 (Psen2) (Homo sapiens, UniProt P49810); experiment: Presenilin specific luciferase/cleavage reporter assay in PS1/2 DKO mEF reconstituted with Presenilin 2; assay type: cell-based; settings: Psen2 reconstituted cells, compared to cleavage inhibition of the same compound for Psen1; FIG. 4
T1 construct: expressed in transfected cells; host or cells: PS1/2 DKO mouse embryonic fibroblasts (mEF) reconstituted with Presenilin 2
Method: Immunoblot on cell lysates of PS1/2 DKO cells, and PS1/2 DKO reconstituted with either Presenilin 1 or Presenilin 2 were provided. Blots were probed with antibodies for nicastrin, Presenilin 1 (C-terminal fragment), Presenilin 2 (C-terminal fragment), and β-actin (loading control) to verify the cell construct used for later experiments. Double knock out of PSEN1 and PSEN2 and reconstitution were successful.
Cells were plated 24 hours prior to transfection in 6 wells plates (200.000 cells/well in 2 mL). Cells were transfected using linear polyethylenimin (P-PEI) and DMEM/f12. 2.3 μg Firefly luciferase reporter plasmids containing synthetic Gal4-binding sites (5xUAS FR-luc) were used per 6 well, as well as 150 ng herpes thymidine kinase-driven Renilla luciferase (here serving as a housekeeping gene, and thus normalizing yardstick) and 50 ng Histone-2B (H2B)-GFP (here serving as a control for transfection success). […] 24 h after transfection, […] were washed with PBS, lysed and measured following manufacturer's directions for the Dual Luciferase Reporter (DLRTM) Assay system (Promega, The Netherlands). Analysis was carried out using the FLUOstar microplate reader (BMG Labtech, Germany). […]

T1 sequence (P49810 1-297 limits assumed): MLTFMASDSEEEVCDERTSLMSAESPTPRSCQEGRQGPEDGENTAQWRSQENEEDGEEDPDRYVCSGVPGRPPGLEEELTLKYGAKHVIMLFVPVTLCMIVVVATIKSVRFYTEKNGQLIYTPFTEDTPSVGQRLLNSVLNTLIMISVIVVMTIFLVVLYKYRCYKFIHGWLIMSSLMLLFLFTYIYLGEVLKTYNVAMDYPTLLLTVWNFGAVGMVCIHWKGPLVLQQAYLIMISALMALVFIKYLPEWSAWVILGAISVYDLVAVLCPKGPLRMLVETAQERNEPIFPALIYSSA
T1 sequence (P49810 298-448 limits assumed): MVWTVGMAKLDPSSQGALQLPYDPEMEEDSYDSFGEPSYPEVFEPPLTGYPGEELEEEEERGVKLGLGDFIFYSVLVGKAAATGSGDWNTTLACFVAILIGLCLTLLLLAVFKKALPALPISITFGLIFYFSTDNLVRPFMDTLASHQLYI
T1 sequence (P57716 34-708 partner limits assumed): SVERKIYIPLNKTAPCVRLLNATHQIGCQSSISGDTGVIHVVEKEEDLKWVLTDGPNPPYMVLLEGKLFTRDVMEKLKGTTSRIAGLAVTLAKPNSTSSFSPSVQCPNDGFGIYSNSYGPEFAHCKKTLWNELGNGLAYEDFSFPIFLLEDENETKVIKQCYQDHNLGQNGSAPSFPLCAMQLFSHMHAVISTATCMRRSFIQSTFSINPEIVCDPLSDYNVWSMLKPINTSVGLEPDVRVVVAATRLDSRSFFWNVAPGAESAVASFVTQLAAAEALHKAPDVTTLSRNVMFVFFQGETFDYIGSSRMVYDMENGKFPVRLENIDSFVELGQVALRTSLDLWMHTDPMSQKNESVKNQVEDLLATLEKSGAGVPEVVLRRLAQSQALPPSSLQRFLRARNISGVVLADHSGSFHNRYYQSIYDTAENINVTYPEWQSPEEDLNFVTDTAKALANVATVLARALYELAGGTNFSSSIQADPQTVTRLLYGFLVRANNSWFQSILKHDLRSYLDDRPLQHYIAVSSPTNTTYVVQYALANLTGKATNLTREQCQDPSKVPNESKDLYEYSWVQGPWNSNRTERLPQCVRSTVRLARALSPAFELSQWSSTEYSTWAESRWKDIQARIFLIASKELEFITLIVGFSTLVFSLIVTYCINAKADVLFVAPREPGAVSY
T1 sequence (Q8BVF7 whole entry partner): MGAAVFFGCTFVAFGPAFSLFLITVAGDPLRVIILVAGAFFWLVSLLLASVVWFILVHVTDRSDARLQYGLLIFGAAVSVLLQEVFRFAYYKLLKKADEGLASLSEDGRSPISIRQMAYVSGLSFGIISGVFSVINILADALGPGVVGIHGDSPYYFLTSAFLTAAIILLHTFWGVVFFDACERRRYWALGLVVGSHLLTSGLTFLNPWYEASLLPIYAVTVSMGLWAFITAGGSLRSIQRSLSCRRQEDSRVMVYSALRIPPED
T1 sequence (Q9CQR7 whole entry partner): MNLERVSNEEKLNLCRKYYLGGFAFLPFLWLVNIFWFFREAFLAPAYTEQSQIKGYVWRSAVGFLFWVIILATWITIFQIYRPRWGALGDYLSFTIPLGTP

## CCN(CC)CCCC(C)Nc1ccnc2cc(Cl)ccc12 (centres unmarked) [CQ, Chloroquine]
[1]
  Inhibition of mutant Notch1 transcriptional activity by CQ: most strongly inhibited

## CCC[C@H](NC(=O)[C@@H](O)c1cc(F)cc(F)c1)C(=O)Nc1cn(C(C)(C)CN(C)C)cn1 [SN262, (S)-2-((S)-2-(3,5-difluorophenyl)-2-hydroxyacetamido)-N-(1-(1-(dimethylamino)-2-methylpropan-2-yl)-1H-imidazol-4-yl)pentanamide]
Presenilin 2 (Psen2)
  Cleavage inhibition (Psen2 specificity): high percentage of cleavage inhibition
